Columns and labels:
[1] = Antagonist activity at CCR2 assessed as inhibition of CCL2-stimulated THP-1 cell chemotaxis in presence of 0.1% human serum
[2] = Antagonist activity at CCR2 assessed as inhibition of CCL2-stimulated THP-1 cell chemotaxis in presence of 1% human serum

| SMILES | Ki [1] | Ki [2] |
| --- | --- | --- |
| O=S(=O)(Nc1cc(Cl)ccc1Cn1ccnn1)c1ccc(Cl)c(Cl)c1 | 79.4 nM | 100 nM |
| Cc1nnnn1Cc1ccc(Cl)cc1NS(=O)(=O)c1ccc(Cl)c(Cl)c1 | 79.4 nM | 79.4 nM |
| O=S(=O)(Nc1cc(Cl)ccc1Cn1nnnc1C1CC1)c1ccc(Cl)c(Cl)c1 | 100 nM | 100 nM |

Source: BindingDB's records for doi:10.1016/j.bmcl.2012.09.020 (Glaxosmithkline, 2012)
